Experimental data published in US20240166635A1, “AMINOHETEROARYL KINASE INHIBITORS” (Anrui Biomedical Technology (Guangzhou) Co.,Ltd., priority 2020, published 2024).

Experiments:
Assay type in all cases: biochemical
[1] = molecular target: CDK2/CyclinE1 (Homo sapiens (Human), UniProt P24941); experiment: CDK2/CyclinE1 kinase inhibitory activity (Caliper mobility shift); conditions: read-out: CDK2/Cyclin El IC50
[2] = molecular target: CDK1/CyclinB (Homo sapiens (Human), UniProt P06493); experiment: CDK1/CyclinB kinase inhibitory activity (Caliper mobility shift); conditions: read-out: CDK1/Cyclin B1 IC50
Chain of CDK1/CyclinB (P06493 whole entry): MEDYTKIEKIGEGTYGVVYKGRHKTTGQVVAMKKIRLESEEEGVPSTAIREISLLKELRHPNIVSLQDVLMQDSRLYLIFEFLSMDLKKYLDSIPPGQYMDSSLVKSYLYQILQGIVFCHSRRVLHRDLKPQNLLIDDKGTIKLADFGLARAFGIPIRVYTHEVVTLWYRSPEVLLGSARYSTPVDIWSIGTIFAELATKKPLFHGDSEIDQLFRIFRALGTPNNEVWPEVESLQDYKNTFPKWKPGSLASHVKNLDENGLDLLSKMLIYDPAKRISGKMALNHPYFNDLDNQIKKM
Chain of CDK1/CyclinB (P14635 whole entry partner): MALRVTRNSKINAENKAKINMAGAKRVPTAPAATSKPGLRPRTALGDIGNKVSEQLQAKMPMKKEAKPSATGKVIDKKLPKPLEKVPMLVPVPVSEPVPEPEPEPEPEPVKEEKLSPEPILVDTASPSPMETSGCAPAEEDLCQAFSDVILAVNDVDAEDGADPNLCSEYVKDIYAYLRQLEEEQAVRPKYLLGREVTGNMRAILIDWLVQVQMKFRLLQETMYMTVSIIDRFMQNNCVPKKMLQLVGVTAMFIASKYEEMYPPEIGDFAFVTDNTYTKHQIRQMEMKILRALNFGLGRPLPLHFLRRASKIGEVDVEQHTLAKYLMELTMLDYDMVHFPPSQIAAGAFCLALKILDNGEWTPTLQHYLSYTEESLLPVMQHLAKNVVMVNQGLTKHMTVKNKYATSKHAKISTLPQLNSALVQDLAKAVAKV

[3] = molecular target: CDK6/CyclinD1 (Homo sapiens (Human), UniProt Q00534); experiment: CDK6/CyclinD1 kinase inhibitory activity (Caliper mobility shift); conditions: read-out: CDK6/Cyclin D1 IC50
Chain of CDK6/CyclinD1 (Q00534 whole entry): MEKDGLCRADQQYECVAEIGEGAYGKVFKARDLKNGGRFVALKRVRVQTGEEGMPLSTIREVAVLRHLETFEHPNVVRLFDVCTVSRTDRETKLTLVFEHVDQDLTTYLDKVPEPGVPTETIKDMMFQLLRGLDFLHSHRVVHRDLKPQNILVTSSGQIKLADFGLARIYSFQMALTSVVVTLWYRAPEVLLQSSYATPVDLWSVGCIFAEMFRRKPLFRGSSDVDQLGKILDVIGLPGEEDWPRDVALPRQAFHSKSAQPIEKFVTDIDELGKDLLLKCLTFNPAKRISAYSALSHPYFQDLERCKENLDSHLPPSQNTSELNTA
Chain of CDK6/CyclinD1 (P24385 whole entry partner): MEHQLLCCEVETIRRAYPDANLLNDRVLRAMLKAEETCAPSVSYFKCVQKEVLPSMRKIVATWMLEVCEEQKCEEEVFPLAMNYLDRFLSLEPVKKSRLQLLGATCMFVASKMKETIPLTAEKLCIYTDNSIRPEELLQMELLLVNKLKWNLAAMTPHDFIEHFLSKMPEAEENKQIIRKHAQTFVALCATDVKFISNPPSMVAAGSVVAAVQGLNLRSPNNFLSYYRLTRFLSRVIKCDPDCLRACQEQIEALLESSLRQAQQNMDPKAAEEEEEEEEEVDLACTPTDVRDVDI

[4] = molecular target: CDK7/CyclinH/MAT1 (Homo sapiens (Human), UniProt P50613); experiment: CDK7/CyclinH/MAT1 kinase inhibitory activity (Caliper mobility shift)
Chain of CDK7/CyclinH/MAT1 (P50613 whole entry): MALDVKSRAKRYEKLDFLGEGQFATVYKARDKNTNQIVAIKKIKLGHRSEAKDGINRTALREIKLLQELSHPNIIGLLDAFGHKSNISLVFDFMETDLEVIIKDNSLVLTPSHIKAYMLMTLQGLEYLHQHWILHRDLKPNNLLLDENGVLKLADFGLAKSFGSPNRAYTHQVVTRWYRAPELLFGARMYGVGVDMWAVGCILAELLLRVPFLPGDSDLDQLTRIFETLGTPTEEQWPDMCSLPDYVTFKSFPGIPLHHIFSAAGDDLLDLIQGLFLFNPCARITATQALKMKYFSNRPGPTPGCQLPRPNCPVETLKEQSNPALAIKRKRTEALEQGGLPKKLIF
Chain of CDK7/CyclinH/MAT1 (P51946 whole entry partner): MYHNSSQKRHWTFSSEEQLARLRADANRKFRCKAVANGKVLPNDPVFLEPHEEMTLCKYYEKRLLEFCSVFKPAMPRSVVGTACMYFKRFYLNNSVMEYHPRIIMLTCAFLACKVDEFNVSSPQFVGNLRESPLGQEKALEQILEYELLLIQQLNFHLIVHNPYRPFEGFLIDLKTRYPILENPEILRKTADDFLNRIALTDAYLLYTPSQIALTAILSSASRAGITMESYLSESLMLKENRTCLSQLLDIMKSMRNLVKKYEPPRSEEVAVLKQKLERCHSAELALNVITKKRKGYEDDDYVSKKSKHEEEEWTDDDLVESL
Chain of CDK7/CyclinH/MAT1 (P51948 whole entry partner): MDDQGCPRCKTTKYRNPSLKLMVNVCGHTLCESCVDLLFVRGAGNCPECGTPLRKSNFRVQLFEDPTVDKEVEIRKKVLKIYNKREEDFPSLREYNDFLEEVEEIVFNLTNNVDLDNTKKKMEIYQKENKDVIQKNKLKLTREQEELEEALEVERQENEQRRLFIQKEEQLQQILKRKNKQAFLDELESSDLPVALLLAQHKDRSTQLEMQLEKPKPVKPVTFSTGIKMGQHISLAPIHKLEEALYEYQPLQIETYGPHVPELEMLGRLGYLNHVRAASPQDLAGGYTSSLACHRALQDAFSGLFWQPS

[5] = molecular target: CDK9/CyclinT1 (Homo sapiens (Human), UniProt P50750); experiment: CDK9/CyclinT1 kinase inhibitory activity (Caliper mobility shift); conditions: read-out: CDK9/Cyclin T1 IC50
Chain of CDK9/CyclinT1 (P50750 whole entry): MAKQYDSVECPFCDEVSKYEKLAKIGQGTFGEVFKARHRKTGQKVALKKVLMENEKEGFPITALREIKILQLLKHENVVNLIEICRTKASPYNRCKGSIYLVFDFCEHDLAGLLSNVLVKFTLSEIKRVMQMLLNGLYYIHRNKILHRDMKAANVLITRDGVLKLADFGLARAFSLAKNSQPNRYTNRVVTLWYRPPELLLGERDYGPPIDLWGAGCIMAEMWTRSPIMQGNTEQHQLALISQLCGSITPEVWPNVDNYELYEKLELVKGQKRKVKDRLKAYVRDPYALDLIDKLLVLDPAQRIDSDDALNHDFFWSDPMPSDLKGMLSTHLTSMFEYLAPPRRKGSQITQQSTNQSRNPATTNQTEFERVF
Chain of CDK9/CyclinT1 (O60563 whole entry partner): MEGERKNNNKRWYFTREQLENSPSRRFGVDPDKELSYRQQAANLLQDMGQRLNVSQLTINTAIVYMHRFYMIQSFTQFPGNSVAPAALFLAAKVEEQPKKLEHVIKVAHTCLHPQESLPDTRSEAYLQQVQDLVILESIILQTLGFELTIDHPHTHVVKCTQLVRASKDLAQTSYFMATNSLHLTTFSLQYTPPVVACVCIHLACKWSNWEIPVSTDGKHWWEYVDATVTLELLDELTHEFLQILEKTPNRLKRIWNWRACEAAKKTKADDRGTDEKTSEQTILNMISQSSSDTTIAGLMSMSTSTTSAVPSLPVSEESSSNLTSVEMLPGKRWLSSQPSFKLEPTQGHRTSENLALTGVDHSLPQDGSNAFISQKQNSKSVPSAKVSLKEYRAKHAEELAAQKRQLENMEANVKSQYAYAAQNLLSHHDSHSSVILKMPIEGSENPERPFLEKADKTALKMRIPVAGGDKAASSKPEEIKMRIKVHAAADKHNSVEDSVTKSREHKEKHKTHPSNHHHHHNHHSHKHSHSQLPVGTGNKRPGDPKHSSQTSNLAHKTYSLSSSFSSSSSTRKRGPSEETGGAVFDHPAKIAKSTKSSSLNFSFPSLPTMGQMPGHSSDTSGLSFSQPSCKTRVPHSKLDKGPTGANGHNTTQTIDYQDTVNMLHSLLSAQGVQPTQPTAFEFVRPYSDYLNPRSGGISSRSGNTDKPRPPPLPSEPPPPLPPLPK

[6] = molecular target: CDK4/Cyclin D1 (Homo sapiens (Human), UniProt P11802); experiment: CDK4/CyclinD1 kinase inhibitory activity (Caliper mobility shift)
Chain of CDK4/Cyclin D1 (P11802 whole entry): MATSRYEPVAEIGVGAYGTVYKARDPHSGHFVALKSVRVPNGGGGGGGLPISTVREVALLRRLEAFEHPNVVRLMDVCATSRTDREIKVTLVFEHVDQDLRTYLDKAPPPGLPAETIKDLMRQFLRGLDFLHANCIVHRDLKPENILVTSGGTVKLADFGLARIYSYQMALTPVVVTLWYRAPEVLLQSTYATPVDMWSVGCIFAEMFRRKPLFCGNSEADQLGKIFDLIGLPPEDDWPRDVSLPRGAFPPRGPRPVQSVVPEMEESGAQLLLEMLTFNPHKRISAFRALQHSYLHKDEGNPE
Chain of CDK4/Cyclin D1 (P24385 whole entry partner): as the sequence (P24385 whole entry partner) above

Compound | IC50 [1] [nM] | IC50 [2] [nM] | IC50 [3] [nM] | IC50 [4] [nM] | IC50 [5] [nM] | IC50 [6] [nM]
N#Cc1cnc(Nc2ccc(S(N)(=O)=O)cc2)nc1N1CCCC(c2ccccc2)C1 (single isomer, unassigned) [Example 85] | < 10 | 10 to 100 | 100 to 1000 | 100 to 1000 | 100 to 1000 | 
CNS(=O)(=O)c1ccc(Nc2ncc(C(F)(F)F)c(OC3CCOCCC3O)n2)cc1 (single isomer, unassigned) [Example 102c, 4-((4-((5-hydroxyoxepan-4-yl)oxy)-5-(trifluoromethyl)pyrimidin-2-yl)amino)-N-(methyl-d3)benzenesulfonamide] | < 10 |  |  |  |  | ≥ 1000
N#Cc1cnc(Nc2ccc(S(=O)(=O)NC3COC3)cc2)nc1N1CCCCC1 [Example 66, 4-((5-cyano-4-(piperidin-1-yl)pyrimidin-2-yl)amino)-N-(oxetan-3-yl)benzenesulfonamide] | < 10 | 10 to 100 | 100 to 1000 | ≥ 1000 | 100 to 1000 | 
NS(=O)(=O)c1ccc(Nc2ncc(F)c(N3CCCCC3)n2)cc1 [Example 86] | 10 to 100 | 10 to 100 | ≥ 1000 | ≥ 1000 | 10 to 100 | 
N#Cc1cnc(Nc2ccc(S(N)(=O)=O)cc2)nc1OCC1(CO)CCCCC1 [Example 17] | < 10 | 10 to 100 | 100 to 1000 | ≥ 1000 | 100 to 1000 | 
CNS(=O)(=O)c1ccc(Nc2ncc(C(F)(F)F)c(OC3CCOCCC3O)n2)cc1 (single isomer, unassigned) [Example 102b, 4-((4-((5-hydroxyoxepan-4-yl)oxy)-5-(trifluoromethyl)pyrimidin-2-yl)amino)-N-(methyl-d3)benzenesulfonamide] | < 10 |  |  |  |  | ≥ 1000
N#Cc1cnc(Nc2ccc(S(N)(=O)=O)cc2)nc1OCC1(CO)CCCC1 [Example 15] | < 10 | 10 to 100 | 100 to 1000 | 100 to 1000 | 100 to 1000 | 
N#Cc1cnc(Nc2ccc(S(N)(=O)=O)cc2)nc1-c1ccccc1 [Example 93] | 10 to 100 | 100 to 1000 | ≥ 1000 | ≥ 1000 | 100 to 1000 | 
C[C@H]1CCCCN1c1nc(Nc2ccc(S(N)(=O)=O)cc2)ncc1C#N [Example 74] | < 10 | 10 to 100 | 100 to 1000 | ≥ 1000 | 100 to 1000 | 
CNS(=O)(=O)c1ccc(Nc2ncc(C(F)(F)F)c(OC3CCOCCC3O)n2)cc1 (single isomer, unassigned) [Example 102d, 4-((4-((5-hydroxyoxepan-4-yl)oxy)-5-(trifluoromethyl)pyrimidin-2-yl)amino)-N-(methyl-d3)benzenesulfonamide] | < 10 |  |  |  |  | ≥ 1000
CC1(C)CCCN(c2nc(Nc3ccc(S(N)(=O)=O)cc3)ncc2C#N)C1 [Example 83] | < 10 | 10 to 100 | 100 to 1000 | ≥ 1000 | 10 to 100 | 
CNS(=O)(=O)c1ccc(Nc2ncc(C(F)(F)F)c(O[C@H]3CCOC[C@H]3O)n2)c(F)c1 (single isomer, unassigned) [Example 101b, cis-3-fluoro-4-((4-((3-hydroxytetrahydro-2H-pyran-4-yl)oxy)-5-(trifluoromethyl)pyrimidin-2-yl)amino)-N-(methyl-d3)benzenesulfonamide] |  |  | ≥ 1000 |  |  | ≥ 1000
N#Cc1cnc(Nc2ccc(S(N)(=O)=O)cc2)nc1OCC1CCCC1 [Example 1, 4-((5-cyano-4-(cyclopentylmethoxy)pyrimidin-2-yl)amino)benzenesulfonamide] | 10 to 100 | 10 to 100 | ≥ 1000 | ≥ 1000 | 10 to 100 | 
C[C@H]1CCCN(c2nc(Nc3ccc(S(N)(=O)=O)cc3)ncc2C#N)C1 [Example 71] | < 10 | 10 to 100 | 100 to 1000 | ≥ 1000 | 10 to 100 | 
C[C@@H]1CCCCN1c1nc(Nc2ccc(S(N)(=O)=O)cc2)ncc1C#N [Example 73] | < 10 | 10 to 100 | 100 to 1000 | 100 to 1000 | 100 to 1000 | 
